Measurements: US9248131B2, “Aquaporin modulators and methods of using them for the treatment of edema and fluid imbalance” (THE ARIZONA BOARD OF REGENTS ON BEHALF OF THE UNIVERSITY OF …, priority 2006, dated 2016)

Experiments:
[1] = tested on: cerebral ischemia (MCAO model); assay: Middle cerebral artery occlusion (MCAO) model, 1 h ischemia and 24 h reperfusion; assay type: in vivo, mice; settings: 60 mg/kg intravenous single bolus 10 min before reperfusion, 1 h ischemia
Source text: Anatomical measures of infarct size, brain volume, neurological assessments, and mortality rate can be used to assess the consequences of middle cerebral artery occlusion (MCAO) model in mice. The rodent MCAO model, an accepted model of cerebral ischemia and reperfusion (Clark et al., 1997), uses a silicone-coated filament to promote cerebral artery occlusion (Migliati et al., 2001). An innovative method to measure effective occlusion in real time is by laser Doppler monitoring of blood flow rate
Typical procedure for MCAO model in mice: Wild-type C57BL/6J male mice at 9-11 weeks old are anesthetized, and cerebral blood flow is recorded as baseline using laser Doppler. The monofilament is placed in the internal common carotid and advanced to the ostia of the middle cerebral artery. […] After 24 h, animals are evaluated for neurological, behavioral, and general deficits, and then sacrificed for anatomical analysis of the infarcted and contralateral control hemispheres. […]
FIG. 6 illustrates cerebral edema and infarct size in mice subjected to one hour of ischemia and 24 hours of reperfusion, with and without bumetanide (60 mg/kg) administered intravenously in a single bolus at 10 min before reperfusion. Stained with 2% TTC, the infarcted area is white; areas are analyzed using morphometric software by researchers blinded to the treatment group.

[2] = tested on: ischemia-induced cerebral edema (MCAO); settings: cited from earlier work
AQP4 = molecular target: T1, AQP4 (Homo sapiens, UniProt P55087); assay: Oocyte swelling assay: water permeability (Pf) of AQP4-expressing oocytes by videomicroscopy, block or % stimulation; assay type: cell-based
T1 construct: expressed in transfected cells; host or cells: Xenopus oocytes
Source text: A method for screening compounds for their ability to modulate aquaporin activity based on a water permeability assay in Xenopus oocytes expressing aquaporins which is used to identify, assess, and characterize compounds that either block or stimulate the aquaporin channels including AQP1, AQP4 and AQP9 channels.
Selection rationale and methodology. The ability of compounds, analogs and/or agents to block an aquaporin channel was quantified by videomicroscopic analyses of cross-sectional area of AQP-expressing oocytes as a function of time in a defined osmotic gradient, allowing the calculation of the water permeability factor (Pf), statistical evaluation of significant differences in the rate of water entry, and definition of dose response curves with IC50 values (concentration required for half-maximal block).
This compound evaluation method has been utilized with AQP1,-4,-5, and -9 channels. Observations of channel stimulation were made using the same assay method, however, the results were reported as % stimulation over control at a given concentration. […] TEA is known as a blocker of K^+ channel subtypes and nicotinic acetylcholine receptors. TEA sensitivity of AQP1 was removed by site-directed mutagenesis of tyrosine 186 to phenylalanine (Y186F) in the outer vestibule of the water pore, and confirmed that the inhibitory action of TEA is not due to nonspecific effects on endogenous channels (Brooks et al., 2000).

AQP4-expressing oocytes = molecular target: T2, AQP4-expressing oocytes (Homo sapiens, UniProt P55087); assay: Simple screen: time to oocyte bursting in hypotonic saline; assay type: cell-based; settings: 100 μM; AQP4-expressing oocytes preincubated 10-15 min, then 100 mOsm saline
T2 construct: expressed in transfected cells; host or cells: Xenopus oocytes
Experimental: The composition of the library for initial AQP channel screening included various channel, transporter and receptor blocking compounds based on intuition and from clues regarding clinical side effects that involved water transporting tissues. In a simple screen (FIG. 1), control and AQP4-expressing oocytes were preincubated in isotonic saline (100 mM NaCl; 5 mM MgCl2; 5 mM HEPES, pH 7.3; ˜200 mOsm) containing the test compound for 10-15 min before each experiment; then the time to oocyte bursting (physical explosion) after transfer to 100 mOsm saline was monitored visually. […] Block was evident in the increased time required for bursting in hypotonic saline.

[3] = molecular target: T3, native AQP4 in primary cultures of astroglia (Rattus norvegicus, UniProt P47863); assay: Astroglial swelling in primary hippocampal cultures after 50% hypotonic saline; assay type: cell-based; settings: 100 μM extracellular, 15 min preincubation
T3 construct: endogenous in cells; host or cells: rat primary hippocampal astroglial cultures
Experimental: The role of native AQP4 as a target of block by bumetanide was tested in primary cultures of astroglia (FIG. 4). We compared the swelling responses of rat astroglial cells in primary hippocampal cultures after 15 min preincubation with or without drug. Swelling was induced by rapid perfusion of the culture plate with 50% hypotonic saline, either with or without extracellular bumetanide (100 μM) to match the preincubation condition. Glial cells were identified by morphological comparison with cells positive for a glial-specific marker (GFAP). Time-lapse images were taken at 15 second intervals before and during hypotonic challenge. The response was determined by the change in soma area as a function of time, as visualized by time-lapse digital imaging (Olympus MagnaFire™ camera and image acquisition software) using an inverted phase contrast microscope (Nikon); data were analyzed by Scion Image (NIH) software. Each culture was used for only one swelling trial. […]
FIG. 3 illustrates the protective effect of bumetanide on astroglial swelling in primary hippocampal cultures (14-15 days in vitro) after exposure to 50% hypotonic saline at time zero. Plot (left): Cell area visualized by phase contrast microscopy, standardized to the initial volume quantified by Scion Image (NIH) software. […]

T1 sequence (P55087 whole entry, species assumed): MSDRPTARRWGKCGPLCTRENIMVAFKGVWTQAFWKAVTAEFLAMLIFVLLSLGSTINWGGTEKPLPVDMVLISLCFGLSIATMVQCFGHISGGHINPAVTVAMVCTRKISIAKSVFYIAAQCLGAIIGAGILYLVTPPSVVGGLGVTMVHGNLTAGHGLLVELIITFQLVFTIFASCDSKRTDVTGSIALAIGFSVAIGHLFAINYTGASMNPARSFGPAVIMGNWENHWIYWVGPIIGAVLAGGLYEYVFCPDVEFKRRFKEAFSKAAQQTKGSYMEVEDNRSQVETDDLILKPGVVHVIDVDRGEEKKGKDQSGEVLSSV
T3 sequence (P47863 whole entry): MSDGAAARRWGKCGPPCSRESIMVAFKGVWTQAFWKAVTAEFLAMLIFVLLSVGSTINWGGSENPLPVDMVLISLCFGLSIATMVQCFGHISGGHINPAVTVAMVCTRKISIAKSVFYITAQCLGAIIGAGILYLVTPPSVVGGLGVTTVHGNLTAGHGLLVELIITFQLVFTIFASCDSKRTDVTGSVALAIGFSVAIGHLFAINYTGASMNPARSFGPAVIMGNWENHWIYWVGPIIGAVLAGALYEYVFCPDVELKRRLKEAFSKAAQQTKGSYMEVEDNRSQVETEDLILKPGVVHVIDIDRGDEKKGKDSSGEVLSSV
T2 sequence (P55087 whole entry, species assumed): as the sequence (P55087 whole entry, species assumed) above

For `CCCCNc1cc(C(=O)O)cc(S(N)(=O)=O)c1Oc1ccccc1` [bumetanide], the “cerebral edema and infarct size, statistical significance (p<0.06)” value [1] is listed as “does not meet criteria, but indicates promise”, the ischemia-induced cerebral edema ([2]; 30-mg/kg dose, rats, MCAO) is listed as “effectively reduced ischemia-induced cerebral edema” and the “edema formation, magnetic resonance diffusion-weighted imaging” value ([2]; intravenous, first 3 hours of MCAO-induced cerebral ischemia) is listed as “reduced edema formation”. For the same compound, the lowest effective dose ([2]; rats, MCAO, reduction of edema) was 7.6 mg/kg, the “block of swelling rate in AQP4-expressing oocytes” value (AQP4; extracellular application) was “Dose-dependent block” and the “block of swelling in AQP4-expressing oocytes” value (AQP4; internal injection into the oocyte (intracellular)) was “improved block at lower concentrations”. The “time to oocyte bursting” value (AQP4-expressing oocytes) was “significantly delayed bursting time”, the “glial initial swelling (soma area)” value [3] was “reduced” and the “regulatory volume decrease (RVD)” value [3] was “reduced”.
